≈ marks a conversion by molar mass, not a printed value. Read-outs that look alike come from different tables or passages of the source. Peptide text beside a SMILES is read from it.
Legend:
Type in all cases: cell-based
[1] = test system: A. baumannii (colistin-resistant); assay: MIC, colistin-resistant A. baumannii isolates, with and without otilonium bromide; conditions: for MIC: Acinetobacter baumannii
S. Typhimurium PY01 = assay: MIC, colistin-susceptible S. Typhimurium, with and without otilonium bromide; conditions: Salmonella enterica
E. coli Bw25113 = assay: MIC, colistin-susceptible E. coli, with and without otilonium bromide; conditions: Escherichia coli
E. coli J53 [2] = assay: MIC checkerboard dilution assay, otilonium bromide vs. colistin; conditions: Escherichia coli
[3] = test system: colistin-resistant E. coli; assay: Time-kill curves
Experimental: (§1) However, the effective bactericidal concentration of colistin could be reduced to 8 μg/ml in the presence of 20 μg/ml of otilonium bromide. For colistin-susceptible E. coli, 8 μg/ml of colistin is required to eradicate the strains. However, in the presence of 20 μg/ml of otilonium bromide 1 μg/ml colistin is sufficient to achieve complete eradication of the organism. […] Thus, without intending to be limited by theory, it is believed that this synergistic mechanism is not limited to the inhibition of the colistin resistance mechanism.

[4] = test system: colistin-susceptible E. coli; assay: Time-kill curves
Experimental: as §1

mcr-1-bearing E. coli [5] = assay: LIVE/DEAD cell viability assay, fluorescence microscopy; conditions: 8 μg/ml of colistin alone
Experimental: Fluorescence microscopy quantifies the number of live and dead cells and determines the degree of reduction in colistin concentration in the drug combination required for effective eradication of the test organism. […] However, in the presence of 20 μg/ml of otilonium bromide, 4 μg/ml of colistin eradicates >97% of the bacteria.

mcr-1-bearing E. coli [6] = conditions: colistin 32 μg/ml for 24 hours; initial ~10^8 CFU/mL in saline
Experimental: (§2) Starvation-induced bacterial sub-population tolerant cells of colistin-resistant and colistin-susceptible E. coli and A. baumannii strains are tested against the bactericidal effect of the combination of otilonium bromide and colistin. […] The incubation temperature is 37° C. Ob and colistin are added at the same time.

A. baumannii 17978 = assay: Killing of starvation-induced tolerant cells; conditions: with otilonium bromide, 24-hour treatment
Experimental: as §2

[7] = test system: colistin-susceptible E. coli J53; assay: Killing of starvation-induced tolerant cells; conditions: with otilonium bromide, 24-hour treatment
Experimental: as §2

[8] = test system: mcr-1-bearing E. coli J53; assay: SYTOX Green membrane permeability staining; conditions: each drug individually
Source text: SYTOX™ Green (available from ThermoFisher Scientific) staining analysis assesses the membrane permeability of colistin-resistant E. coli before and after treatment with the colistin and otilonium bromide combination. SYTOX Green is a green-fluorescent nucleotide dye used to test membrane permeability and membrane integrity. Green fluorescence is detected by fluorescence spectrometer when bacterial cell integrity is destroyed and membrane permeability increases.

[9] = test system: mcr-1-bearing E. coli J53; assay: Ca2+ / Mg2+ MIC-dependency in cation-supplemented MHB; conditions: 37° C., 16 hours
Experimental: Accordingly, the effect of divalent ions on the antibacterial activity of otilonium bromide and colistin is investigated. […] For FIGS. 5a-5b, E. coli J53 expressing MCR-1 is treated with colistin and colistin+Ob as indicated in Mueller Hinton II Broth (MHB) that is cation-adjusted; i.e., supplemented with different concentrations of Mg^2+ and Ca^2+ ions). The incubation is conducted at 37° C. for 16 hours.

E. coli J53 [10] = assay: as above; conditions: 37° C., 16 hours
Experimental: For FIGS. 5c-5d, colistin-susceptible E. coli J53 is treated with colistin and colistin+Ob as indicated in MHB supplemented with different concentrations of Mg^2+ and Ca^2+ ions. The incubation is conducted at 37° C. for 16 hours.
(§3) Accordingly, it is believed that the addition of a chelant; or a chelant for divalent ions; or a divalent cation chelant, may further improve the activity of the drug formulation, method of use/treatment, disinfection composition, etc. of the present invention.

[11] = test system: P. aeruginosa PAO1 and PAERC 11.603; assay: Divalent ion MIC-dependency in supplemented MHB
Experimental: In FIGS. 5e and 5f, colistin MICs of P. aeruginosa PAO1 and PAERC 11.603, respectively, are determined in MHB supplemented with different Ca^2+ ion concentrations.
as §3

[12] = colistin alone, read-out: Colistin MIC, Colistin
[13] = in the presence of 10 ug/ml Ob, read-out: Colistin MIC, Colistin + 10 ug/ml Ob
[14] = in the presence of 20 ug/ml Ob, read-out: Colistin MIC, Colistin + 20 ug/ml Ob
[15] = in the presence of 20 μg/ml of otilonium bromide

CCC(C)CCCC(=O)N[C@@H](CCN)C(=O)N[C@H](C(=O)N[C@@H](CCN)C(=O)N[C@H]1CCNC(=O)[C@H]([C@@H](C)O)NC(=O)[C@H](CCN)NC(=O)[C@H](CCN)NC(=O)[C@H](CC(C)C)NC(=O)[C@@H](CC(C)C)NC(=O)[C@H](CCN)NC1=O)[C@@H](C)O (stereo partly drawn) [Colistin] (HELM PEPTIDE1{[CCC(C)CCCC(=O)[*:2]].[Dab].T.[Dab].[Dab].[Dab].[dL].L.[Dab].[Dab].T}$PEPTIDE1,PEPTIDE1,5:R3-11:R2$$$V2.0)
Colistin MIC, Colistin ([1]; A. baumannii ABJZ-46, colistin-resistant, colistin alone): 4 µg/mL | Colistin MIC, Colistin ([1]; A. baumannii ABJZ-50, colistin-resistant, colistin alone): 4 µg/mL | Colistin MIC, Colistin ([1]; A. baumannii ABJZ-72, colistin-resistant, colistin alone): 4 µg/mL | MIC ([1]; ATCC17978, read-out: Colistin MIC, Colistin + 10 ug/ml Ob, A. baumannii ATCC17978, colistin-resistant, in the presence of 10 ug/ml Ob): 0.125 µg/mL | MIC ([1]; read-out: Colistin MIC, Colistin + 10 ug/ml Ob, A. baumannii ABJZ-45, colistin-resistant, in the presence of 10 ug/ml Ob): 0.0625 µg/mL | MIC ([1]; read-out: Colistin MIC, Colistin + 10 ug/ml Ob, A. baumannii ABJZ-46, colistin-resistant, in the presence of 10 ug/ml Ob): 0.5 µg/mL | MIC ([1]; read-out: Colistin MIC, Colistin + 10 ug/ml Ob, A. baumannii ABJZ-50, colistin-resistant, in the presence of 10 ug/ml Ob): 0.25 µg/mL | MIC ([1]; read-out: Colistin MIC, Colistin + 10 ug/ml Ob, A. baumannii ABJZ-72, colistin-resistant, in the presence of 10 ug/ml Ob): 0.125 µg/mL | MIC ([1]; A. baumannii ABJZ-45, colistin-resistant, colistin alone, read-out: Colistin MIC, Colistin): 4 µg/mL (≈ 3.46 µM) | MIC ([1]; A. baumannii ATCC17978, colistin-resistant, colistin alone, read-out: Colistin MIC, Colistin): 4 µg/mL (≈ 3.46 µM) | MIC (S. Typhimurium PY01; [12]): 2 µg/mL (≈ 1.73 µM) | MIC (S. Typhimurium PY01; [13]): 0.125 µg/mL | MIC (S. Typhimurium PY01; [14]): 0.03 µg/mL | MIC (E. coli Bw25113; [12]): 2 µg/mL (≈ 1.73 µM) | MIC (E. coli Bw25113; [13]): 0.03 µg/mL | MIC (E. coli Bw25113; [14]): ≤ 0.015 µg/mL | MIC (E. coli J53 [2]; 10 μg/ml of otilonium bromide): ≤ 0.016 µg/mL | MIC (E. coli J53 [2]; colistin alone): 1 µg/mL | colistin concentration inhibiting growth (time-kill) ([3]; colistin alone): ≥ 32 µg/mL | effective bactericidal concentration of colistin (time-kill) [3, 15]: 8 µg/mL | colistin required to eradicate the strains (time-kill) ([4]; colistin alone): 8 µg/mL | colistin sufficient for complete eradication (time-kill) [4, 15]: 1 µg/mL | live/dead state of cells (mcr-1-bearing E. coli [5]): most or all mcr-1-bearing E. coli strains were alive | size of the viable tolerant population (mcr-1-bearing E. coli [6]): 5*10^5 CFU/ml | concentration of colistin required to completely eradicate tolerant sub-population (A. baumannii 17978): 1 µg/mL | concentration of colistin required to completely eradicate tolerant sub-population [7]: 1 µg/mL | SYTOX Green fluorescence (membrane permeability) [8]: significant increase in fluorescence | effect of supplemented Ca2+ and Mg2+ on MIC [9]: increase the MIC | effect of supplemented Ca2+ and Mg2+ on MIC (E. coli J53 [10]): increase the MIC | effect of supplemented Ca2+ and Mg2+ on MIC [11]: increase the MIC
